Experimental data as given in US6420563B1, “Small molecule modulators of G protein-coupled receptor six” (Arena Pharmaceuticals, Inc., priority 1998, dated 2002).

Legend:
Assay type in all cases: in vivo, rat
[1] = Food/water intake and body weight in 24-hour food-deprived rats, IP administration; conditions: for body weight gain: vehicle 20 g
Procedure: An in vivo assessment of GPR6 inverse agonist was accomplished by determining the effects of ARE112 on food intake after food deprivation in rats. Food deprivation was used to induce higher than normal eating behavior (e.g., controlvehicle-treated animals were hyperphagic).
The animals (male Sprague-Dawley rats were used for the following experiments) were food deprived for 24 hr, and then injected intraperitoneally (IP) with 0, 6.75, 13.5, 27 and 54 mg/kg of compound ARE112. After 30 min, rats were introduced to standard rat chow pellets and observed thereafter for a period of 6.5 hours post-injection.

[2] = Food/water intake and body weight in 24-hour food deprived rats, oral gavage (PO)
Outline: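 Rats food-deprived 24 h, then dosed by oral gavage (6.75–54 mg/kg, or 100–200 μmol/kg for analogs). Food intake tracked over hours post-dose (2.5 h up to 8 h) along with body weight gain, compared with vehicle-treated rats.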

[3] = Intracerebroventricular (ICV) administration on 24-hour food-deprived rats; conditions: for water drunk: comparable to vehicle
Procedure: Animals were prepared with an ICV cannula aimed above the lateral ventricle. For this surgery, animals were placed under general anesthesia using continuous inhalation of isoflurane and secured in a Kopf stereotaxic instrument. Surgery was performed in a dedicated surgery room, using sterile instruments, surgical gloves and aseptic procedures to prevent clinical infections. The surgical site was shaved and disinfected with betadine solution and alcohol. Animals were observed continuously for the level of anesthesia by testing for the animals' responses to tail- or paw-pinch. A cannula made of 23 gauge stainless steel tubing (7 mm long) was lowered to a point 1 mm above the ventricle, using coordinates: A/P−0.6 mm from bregma, M/L+/−2.0 mm from bregma, D/V 3.2 mm below skull surface. The guide was anchored to the skull with three stainless steel screws and dental cement. Coordinates were based on stereotaxic atlas such as Paxinos and Watson sterotaxic atlas (Paxinos, G. and Watson, C, The Rat Brain, New York, Academic Press, 1982). After cannula implantation, a 30-gauge stainless steel dummy stylet was inserted into the cannula. At the conclusion of surgery, a heat source (heat lamp directed towards one half of recovery cage) was used to maintain body temperature while the animals recovered from anesthesia. Animals were allowed at least one week of recovery after surgery before ICV injection of compound was performed.
Animals were food-deprived for 24 hours prior to administration of the compound.
For ICV injection, the dummy stylet was removed from the implanted cannula, and a 30-gauge stainless steel injector cannula containing ARE112 suspension in a 45% cyclodextrin solution was inserted to a depth 1.5 mm beyond the ventral tip of the implanted cannula. The other (noninserted) end of the injector cannula was attached to 60 cm of PE10 tubing containing the compound suspension, which was attached at the free end of tubing to a 25 μl Hamilton syringe. Ten microliters of ARE112 suspension (containing, 0, 25, 50, and 100 nmol) were then delivered via gentle and even mechanical pressure to the plunger of the Hamilton syringe. The volume of injection was verified by marks on the PE 10 tubing previously calibrated with a 10 μl Hamilton syringe. At the conclusion of injection, any fluid observed from the dorsal tip of the implanted cannula upon withdrawal of the injector cannula was noted, and the dummy stylet was inserted into the implanted cannula.

[4] = Food intake in non-food deprived rats, oral gavage
Procedure: In a second assay, rats were treated with ARE112 by oral gavage but were not food deprived. Data evidence an even greater decrease in food intake, such that at 18 hours post administration of the compound, the vehicle rats had consumed about 15 grams of food while the injected rats (at all doses) ate 5 grams or less; about a three fold decrease in food consumption when treated with compound ARE112. (See, FIG. 9B).

[5] = Locomotor activity cages (motor function); conditions: IP
Procedure: The effect of ARE112 on motor function was also examined. Motor function was assessed by using automated locomotor activity cages. Animals were placed in a standard rodent cage surrounded by photocell, which allowed for automated recording of motor activity. Animals were under no motivational constraints and were free to move around the cage.
Male Sprague-Dawley rats (n=4-9 per dose) were administered ARE112 (IP) prior to placement into in locomotor activity cages.

[6] = 100 μmol/kg PO, second assay, Table D, vehicle 19.25

In the case of `O=C(N=C1SSC2=NCCN21)c1cccs1` [ARE112, N-(5,6-dihydro-3H-imidazo[2,1-c]-1,2,4-dithiazol-3-ylidene)-thiophen-2-carboxamide], the body weight gain ([1]; 13.5 mg/kg IP) is reported as 11 g, the body weight gain ([1]; 27 mg/kg IP) is reported as “no weight gain” and the “decrease in water intake” value ([1]; 54 mg/kg IP) is reported as 5 fold. The “food consumed (cumulative food intake)” value ([1]; 54 mg/kg IP, 1.5 hours after injection, vehicle about 6 grams) was 3 g, the “food consumed (cumulative food intake)” value ([1]; 54 mg/kg IP, 6.5 hours post-injection, vehicle up to 14 g) was 4 g and the body weight gain ([1]; 54 mg/kg IP) was “no weight gain”. For the same compound, the “Cumulative Food Intake (g) (8 hr post administration)” value ([2]; 100 μmol/kg PO, second assay, Table D, vehicle 14.0) was 8.1 g, the “Body Weight Gain (g) (6 hr post administration)” value [2, 6] was 6.25 g and the “Cumulative Water Intake (g) (6 hr post administration)” value [2, 6] was 10.5 g. For the same compound, the “body weight gain (FIG. 10C)” value ([2]; 100 μmol/kg oral, vehicle about 19.5 grams) was 6 grams, the food consumed ([2]; 27 mg/kg oral gavage, 2.5 hours, vehicle about 6 grams) was “about 6 grams” and the food consumed ([2]; 27 mg/kg oral gavage, 8 hours post-administration, vehicle about 14 grams) was “about 8 grams”. For the same compound, the food consumed ([2]; 54 mg/kg oral gavage, 2.5 hours, vehicle about 6 grams) was about 4 grams, the food consumed ([2]; 54 mg/kg oral gavage, 8 hours post-administration, vehicle about 14 grams) was “about 6 grams” and the water drunk ([3]; 25 nmol ICV) was “about 17 grams”. The water drunk ([3]; 50 nmol ICV) was “about 17 grams”, the water consumed ([3]; 100 nmol ICV, relative to about 17 grams) was “less than half that amount” and the weight gained ([3]; 100 nmol ICV, vehicle about 12 grams) was 5 grams. For the same compound, the food consumed ([3]; after three hours, ICV, vehicle about 2.5 grams) was at most 1.0 grams, the “less food consumed than vehicle” value ([3]; two hours post-administration, all doses (25, 50, 100 nmol ICV)) was “about 6 fold” and the oral activity ([4]; 6.75 to 54 mg/kg) was “orally active”. For the same compound, the “decrease in food consumption” value ([4]; 18 hours post administration) was “three”, the food consumed ([4]; all doses, 18 hours post administration, vehicle about 15 grams) was at most 5 grams and the locomotor activity ([5]; 1.5 hour immediately after injection) was “does not affect locomotor activity”. For the same compound, the locomotor activity ([5]; 16 hours post-injection) was “decreases locomotor activity”.
